Test results from paper PMC10090446, “Population pharmacokinetic analysis and dosing optimization of polymyxin B in critically ill patients” (Frontiers in Pharmacology, 2023).
Positions of bridges follow the written chain, without caps; N, C: chain ends. Non-standard residues stand in square brackets, D forms with d. Residues, ends and D or L forms follow the SMILES beside them. *: point of attachment. X1 = CC[C@H](C)CCCCC(=O)*; Dab = NCC[C@H](N)C(=O)O

Test: Steady-state plasma concentrations of polymyxin B (total of B1, B2, B1-Ile) by LC-MS/MS
Type: in vivo
Details: human, iv, read-out: OUT (observed polymyxin B plasma concentration)
Text: We gather data from critically ill patients (≥18 years old) who were given intravenous drip polymyxin B treatment with blood concentration monitoring at the hospital from November 2021 to September 2022. The attending physician decided to administer polymyxin B. At the same time, patients who received continuous renal replacement therapy (CRRT) (n = 10) or extracorporeal membrane oxygenation (ECMO) (n = 2) at the time of blood collection were excluded. Patients’ information, including gender, age, WT, serum creatinine (Scr), CCR, ALB, APACHE-II, infection diagnosis, and pathogenic bacteria, were obtained from the electronic system for medical records. CCR was generated by adopting the Cockcroft—Gault equation with WT and age ([Cucci et al., 2022]). The Ethical Committees of the Second Affiliated Hospital of the South China University of Technology authorized the study (K-2022-020-01).
Patients were treated with polymyxin B, and plasma samples were collected ≥ 48 h after the treatment. Each patient contributed clinical samples, of which 37.5% (n = 24) were sampled with troughs (within 1 h before administration), 35.9% (n = 23) were sampled with peaks (within 1 h after the end of the infusion), and 26.6% (n = 17) were sampled at 6-8 h after the infusion. The dosing regimens of polymyxin B were a loading dose of 100 mg–150 mg and a maintenance dose of 50 mg–75 mg q12h, and the infusion duration was about 1–2 h. In preparation for analysis, samples were centrifuged for 10 min at 3000 r min^-1 after collection, and the upper plasma after centrifugation was stored at −20°C.
According to previous studies, total polymyxin B1, polymyxin B2, and polymyxin B1-Ile concentrations in human blood plasma were quantified using LC-MS/MS ([Meng et al., 2016]; [Hee et al., 2017]). The standard used in our experiments was the USP standard with the batch number of R104F0. The chromatographic column was the Kinetex C18 (3 μm × 2.1 mm×100 mm. Phenomenex). A: B mobile phase was 0.1% formic acid to acetonitrile. With changes in the linear velocity ratio, gradient elution was as follows: 15% −15% B, 0–2.0 min; 15%–10% B, 2.01–4.0 min; 10%–30% B, 4.01–5.0 min; 15% B, 5.01 min; and 15%–15% B, 5.02–10 min. The flow rate was constrained to 0.8 mL min^-1, and the column temperature was set to 40°C. The parent/daughter ion mass ratios used in the mass spectrometry were m/z 602.6/241.2 (polymyxin B1 and B1-Ile) and m/z 595.6/202.1 (polymyxin B2). Plasma samples (100 μL) were collected from centrifuged blood samples, mixed with 500 μL precipitant (acetonitrile with 6.67% formic acid) and vortexed well for 1 min. The lower limit of quantification (LLOQ) of the bioanalytical method used for quantifying polymyxin B1, B2, and B1-Ile concentrations was 0.19, 0.02 and 0.02 mg L^-1, respectively. The linear relationships of polymyxin B1, B2, and B1-Ile concentrations in the range of 0.19–24.13 mg L^-1, 0.02–2.7 mg L^-1 and 0.02–2.38 mg L^-1 were considered good (R^2 = 0.99677, R^2 = 0.99656, R^2 = 0.99484) and the accuracy was within 95.3%–105.3%, 92.2%–104.8%, and 95.8%–105.4%. […] Finally, 200 μL of the supernatant from the centrifugation of the combination at 14,000 r min^-1 for 10 min was employed to measure the amounts of polymyxin B.

Structure (SMILES): CC[C@H](C)CCCCC(=O)N[C@@H](CCN)C(=O)N[C@H](C(=O)N[C@@H](CCN)C(=O)N[C@H]1CCNC(=O)[C@H]([C@@H](C)O)NC(=O)[C@H](CCN)NC(=O)[C@H](CCN)NC(=O)[C@H](CC(C)C)NC(=O)[C@@H](Cc2ccccc2)NC(=O)[C@H](CCN)NC1=O)[C@@H](C)O [polymyxin B] (X1-[Dab]T[Dab][Dab][Dab][dF]L[Dab][Dab]T; lactam 4-C)
- level at 47.67 h (50 mg, patient ID 2, TIME 47.67, DOSE 50 every 12 from 0 to 36, DUR 1, WT 56, CCR 34.05, ALB 30.1, APACHE 20, single sample): 3020 ng/mL
- level at 50 h (50 mg, patient ID 6, TIME 50, DOSE 50 every 12 from 0 to 48, DUR 1, WT 60, CCR 81.34, ALB 36.6, APACHE 18, single sample): 4480 ng/mL
- level at 300 h (50 mg, patient ID 7, TIME 300, DOSE 50 from 0, ADDL 25, II 12, DUR 1, WT 52, CCR 121.16, ALB 32.1, APACHE 21, single sample): 2640 ng/mL
- level at 301 h (50 mg, patient ID 7, TIME 301, DOSE 50 from 0, ADDL 25, II 12, DUR 1, WT 52, CCR 121.16, ALB 32.1, APACHE 21, single sample): 7720 ng/mL
- level at 306.5 h (50 mg, patient ID 7, TIME 306.5, DOSE 50 from 0, ADDL 25, II 12, DUR 1, WT 52, CCR 121.16, ALB 32.1, APACHE 21, single sample): 4180 ng/mL
- level at 133.6 h (50 mg, patient ID 9, TIME 133.6, DOSE 50 from 0, ADDL 11, II 12, DUR 1, WT 55, CCR 34.79, ALB 30.8, APACHE 15, single sample): 3740 ng/mL
- level at 139 h (50 mg, patient ID 9, TIME 139, DOSE 50 from 0, ADDL 11, II 12, DUR 1, WT 55, CCR 34.79, ALB 30.8, APACHE 15, single sample): 3180 ng/mL
- level at 145 h (50 mg, patient ID 9, TIME 145, DOSE 50 from 0, ADDL 11, II 12, DUR 1, WT 55, CCR 34.79, ALB 30.8, APACHE 15, single sample): 2890 ng/mL
- level at 195 h (50 mg, patient ID 15, TIME 195, DOSE 50 every 12 from 133 (DUR 1, ADDL 11), WT 50, CCR 35.85, ALB 29.5, APACHE 39, single measurement): 4600 ng/mL
- level at 207 h (50 mg, patient ID 15, TIME 207, DOSE 50 every 12 from 133 (DUR 1, ADDL 11), WT 50, CCR 35.85, ALB 29.5, APACHE 39, single measurement): 2250 ng/mL
- level at 266.25 h (50 mg, patient ID 15, TIME 266.25, DOSE 50 every 12 from 133 (DUR 1, ADDL 11), WT 50, CCR 35.85, ALB 29.5, APACHE 39, single measurement): 4870 ng/mL
- level at 277 h (50 mg, patient ID 15, TIME 277, DOSE 50 every 12 from 133 (DUR 1, ADDL 11), WT 50, CCR 35.85, ALB 29.5, APACHE 39, single measurement): 2420 ng/mL
- level at 169.25 h (50 mg, patient ID 16, TIME 169.25, DOSE 50 every 12 from 0 (DUR 2, ADDL 14), WT 65, CCR 75.18, ALB 32, APACHE 31, single measurement): 6980 ng/mL
- level at 174 h (50 mg, patient ID 16, TIME 174, DOSE 50 every 12 from 0 (DUR 2, ADDL 14), WT 65, CCR 75.18, ALB 32, APACHE 31, single measurement): 2970 ng/mL
- level at 179 h (50 mg, patient ID 16, TIME 179, DOSE 50 every 12 from 0 (DUR 2, ADDL 14), WT 65, CCR 75.18, ALB 32, APACHE 31, single measurement): 2460 ng/mL
- level at 120 h (50 mg, patient ID 17, TIME 120, DOSE 50 every 12 from 0 (DUR 1, ADDL 10), WT 75, CCR 55.08, ALB 38.8, APACHE 22, single measurement): 4530 ng/mL
- level at 121.48 h (50 mg, patient ID 17, TIME 121.48, DOSE 50 every 12 from 0 (DUR 1, ADDL 10), WT 75, CCR 55.08, ALB 38.8, APACHE 22, single measurement): 2350 ng/mL
- level at 62.5 h (50 mg, patient ID 18, TIME 62.5, DOSE 50 at 0, 12, 24, 36, 48, 60, DUR 2, WT 80, CCR 169.94, ALB 41.5, APACHE 29, single measurement): 4860 ng/mL
- level at 66 h (50 mg, patient ID 18, TIME 66, DOSE 50 at 0, 12, 24, 36, 48, 60, DUR 2, WT 80, CCR 169.94, ALB 41.5, APACHE 29, single measurement): 1800 ng/mL
- level at 72 h (50 mg, patient ID 18, TIME 72, DOSE 50 at 0, 12, 24, 36, 48, 60, DUR 2, WT 80, CCR 169.94, ALB 41.5, APACHE 29, single measurement): 839 ng/mL
- level at 97 h (75 mg, patient ID 12, TIME 97, DOSE 75 from 0, ADDL 9, II 12, DUR 1, WT 60, CCR 104.47, ALB 33.9, APACHE 24, single sample): 9560 ng/mL
- level at 102 h (75 mg, patient ID 12, TIME 102, DOSE 75 from 0, ADDL 9, II 12, DUR 1, WT 60, CCR 104.47, ALB 33.9, APACHE 24, single sample): 4840 ng/mL
- level at 108 h (75 mg, patient ID 12, TIME 108, DOSE 75 from 0, ADDL 9, II 12, DUR 1, WT 60, CCR 104.47, ALB 33.9, APACHE 24, single sample): 2990 ng/mL
- level at 74.33 h (75 mg, patient ID 15, TIME 74.33, after DOSE 75 at 73 (DUR 1, ADDL 4, II 12), WT 50, CCR 35.85, ALB 29.5, APACHE 39, single measurement): 8900 ng/mL
- level at 217 h (75 mg, patient ID 22, TIME 217, DOSE 75 every 12 from 0 (ADDL 18), DUR 1, WT 60, CCR 155.65, ALB 24.3, APACHE 30, single measurement): 3620 ng/mL
- level at 222 h (75 mg, patient ID 22, TIME 222, DOSE 75 every 12 from 0 (ADDL 18), DUR 1, WT 60, CCR 155.65, ALB 24.3, APACHE 30, single measurement): 2060 ng/mL
- level at 228 h (75 mg, patient ID 22, TIME 228, DOSE 75 every 12 from 0 (ADDL 18), DUR 1, WT 60, CCR 155.65, ALB 24.3, APACHE 30, single measurement): 1060 ng/mL
- level at 60.5 h (patient ID 1, TIME 60.5, DOSE 100 at 0 then 50 every 12 to 48, DUR 1, WT 58, CCR 69.29, ALB 23.1, APACHE 30, single sample): 2270 ng/mL
- level at 325 h (patient ID 3, TIME 325, DOSE 100 at 0 then 50 from 12, ADDL 27, II 12, DUR 1, WT 57, CCR 61.5, ALB 33.8, APACHE 21, single sample): 6600 ng/mL
- level at 330 h (patient ID 3, TIME 330, DOSE 100 at 0 then 50 from 12, ADDL 27, II 12, DUR 1, WT 57, CCR 61.5, ALB 33.8, APACHE 21, single sample): 2930 ng/mL
- level at 336 h (patient ID 3, TIME 336, DOSE 100 at 0 then 50 from 12, ADDL 27, II 12, DUR 1, WT 57, CCR 61.5, ALB 33.8, APACHE 21, single sample): 3140 ng/mL
- level at 59 h (patient ID 4, TIME 59, DOSE 100 at 0 then 50 every 12 to 48, DUR 1, WT 58, CCR 61.95, ALB 25.5, APACHE 28, single sample): 863 ng/mL
- level at 64.5 h (patient ID 4, TIME 64.5, DOSE 100 at 0 then 50 every 12 to 60, DUR 1, WT 58, CCR 61.95, ALB 25.5, APACHE 28, single sample): 2330 ng/mL
- level at 167.9 h (patient ID 5, TIME 167.9, DOSE 100 at 0 then 50 from 12, ADDL 15, II 12, DUR 1, WT 60, CCR 41.15, ALB 36.1, APACHE 21, single sample): 2900 ng/mL
- level at 182 h (patient ID 5, TIME 182, DOSE 100 at 0 then 50 from 12, ADDL 15, II 12, DUR 1, WT 60, CCR 41.15, ALB 36.1, APACHE 21, single sample): 4510 ng/mL
- level at 186 h (patient ID 5, TIME 186, DOSE 100 at 0 then 50 from 12, ADDL 15, II 12, DUR 1, WT 60, CCR 41.15, ALB 36.1, APACHE 21, single sample): 3290 ng/mL
- level at 73.25 h (patient ID 10, TIME 73.25, DOSE 100 at 0 then 50 every 12 to 72, DUR 1, WT 62, CCR 72.12, ALB 33.9, APACHE 17, single sample): 6730 ng/mL
- level at 79 h (patient ID 10, TIME 79, DOSE 100 at 0 then 50 every 12 to 72, DUR 1, WT 62, CCR 72.12, ALB 33.9, APACHE 17, single sample): 6230 ng/mL
